Results: patent publication US20070280919A1, “Produce-treatment composition and method for treatment of fresh produce” (priority 2006, published 2007)

System: green mold (P. digitatum)
Assay: In vivo efficacy test on inoculated fruit, green mold incidence (FIG. 1)
Design: species or system Penicillium digitatum
Settings: fruit puncture-inoculated with P. digitatum, imazalil at 0.1%
Experimental: In vivo efficacy tests for the formulation of Table 7 were carried out on Fallglo tangerines, pineapples, and Valencia oranges inoculated with Penicillium digtatum using a puncture method, in which the fruit was punctured with the tip of a 1 mm×1 mm probe that had been dipped into the inoculum solution (1×10^6 fungal spores/ml). The fruit was then subject to either a dip treatment procedure or a packingline dip treatment procedure twenty to twenty-four hours after inoculation. The dip treatment procedure involved dipping the inoculated fruit into the composition for one (1) minute. The packingline dip treatment procedure involved treating the fruit with suspensions or wax containing the produce-treatment composition using a non-recovery drip system through a simulated commercial packing line. Fruits were rotated on brush beds and contacted with chemicals for 15 to 20 seconds, and then dried at 50-54° C. for 1-2 minutes. In both procedures, the treated fruit was incubated at 21° C. with 95% relative humidity. FIG. 1 depicts a bar graph reporting the efficacy of the produce-treatment composition of Table 7 to green mold (P. digitatum), and comparing the results to those of a control (distilled water) and 0.1% imazalil. The inventive formulation reduced green-mold incidences to […], relative to untreated produce. […]

Which green-mold incidences (treated 20-24 h later, incubated at 21° C., 95% RH) does the source give for C=CCOC(Cn1ccnc1)c1ccc(Cl)cc1Cl (centres unmarked) [imazalil] here?
Its green-mold incidences is 51%.

And the “reduction of green-mold incidences” value (relative to untreated produce)?
Its value is 49%.
